Series [1] deals with T1, rat NaP2b (SLC34A2) (Rattus norvegicus, UniProt Q9JJ09).
T1 construct: host or cells: HEK293
T1 sequence (Q9JJ09 1-695): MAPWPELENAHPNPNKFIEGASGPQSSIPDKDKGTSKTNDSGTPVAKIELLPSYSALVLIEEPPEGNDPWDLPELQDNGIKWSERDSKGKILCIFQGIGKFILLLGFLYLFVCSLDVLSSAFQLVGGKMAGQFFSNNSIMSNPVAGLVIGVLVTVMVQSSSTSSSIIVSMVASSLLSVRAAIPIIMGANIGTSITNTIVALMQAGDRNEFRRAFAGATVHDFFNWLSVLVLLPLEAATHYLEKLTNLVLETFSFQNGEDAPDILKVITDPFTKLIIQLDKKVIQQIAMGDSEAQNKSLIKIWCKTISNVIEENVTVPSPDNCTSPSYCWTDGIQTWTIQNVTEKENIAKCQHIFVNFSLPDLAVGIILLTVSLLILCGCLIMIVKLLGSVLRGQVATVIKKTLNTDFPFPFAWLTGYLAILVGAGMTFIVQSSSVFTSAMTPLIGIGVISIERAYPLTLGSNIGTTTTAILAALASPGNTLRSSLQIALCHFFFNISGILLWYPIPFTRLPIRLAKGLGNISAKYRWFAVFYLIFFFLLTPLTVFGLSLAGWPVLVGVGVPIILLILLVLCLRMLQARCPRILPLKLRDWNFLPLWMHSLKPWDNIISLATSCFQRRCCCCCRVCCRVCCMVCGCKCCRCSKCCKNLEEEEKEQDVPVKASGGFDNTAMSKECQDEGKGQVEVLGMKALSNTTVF
As to the kind of experiment: Inhibition of NaP2b-mediated Pi (33P) uptake in transfected HEK293 cells, rat NaP2b. It counts as cell-based. The following applies: 33P Pi uptake, 0.1 mM phosphate, value given as pIC50 range. An outline of the steps:
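The cells transiently expressed NaP2b after Lipofectamine transfection. Each compound was run in duplicate over twelve concentrations, 0.1 nM–30 uM.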

The nature of series [2]: Stability of compounds in simulated gastric fluid (SGF). The note with it: simulated gastric fluid (3 mg/mL pepsin), incubation time 6 hr, relative to t=0. In kind it is in vitro ADME. The procedure: (§1) Test compounds were incubated at […] in simulated gastric fluid (SGF; standard USP solution with 3 mg/mL pepsin) or simulated intestinal fluid (SIF; standard USP solution with 3 mg/mL pancreatin) for 3 hr or 6 hr. HPLC-UV or HPLC-MS were used to determine test compound levels using peak area %. Results (Table 14) were reported as the percentage of test compound remaining after incubation in a given condition relative to test compound present at t=0 in the same condition.

Series [3] in a line: Stability of compounds in simulated intestinal fluid (SIF). It counts as in vitro ADME. The following applies: simulated intestinal fluid (3 mg/mL pancreatin), incubation time 6 hr, relative to t=0. As for the experimental part:
as §1

Series [4] is described as follows: Determination of compound Cmax and AUC after oral gavage (plasma LC-MS/MS). In kind it is in vivo, Sprague-Dawley rats. The note with it: Sprague-Dawley, rat, plasma, po, Structure (I) examples, Table 15, actual oral dose 3-15 mg/kg, plasma 0.5-4 h. An outline of the steps:
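Plasma exposure measured by LC-MS/MS after acetonitrile precipitation with internal standard, quantified against a standard curve made in plasma. Compound given orally by gavage to Sprague-Dawley rats at nominal 2.5 or 10 mg/kg, with K2EDTA plasma sampled at 0.5, 1, 2 and 4 h.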

The values that follow come from patent US20140023611A1 (priority 2010, published 2014).

By IC50 is commonly meant the concentration that inhibits the measured activity by half. A low value points to inhibition by little substance. One may read the AUC as concentration integrated over time. A higher AUC goes with high exposure. As usually defined, the Cmax is the maximum level reached in the sampled fluid or tissue.

In series [1], `CN(CCOCCOCCOCCC(=O)O)C(=O)c1cccc(C(=O)Nc2ccc(N3CCCCC3)cc2-c2cc(C(=O)NCc3cccc(C(F)(F)F)c3)ccn2)c1` [Example 248, 3-[2-(2-{2-[N-methyl-1-(3-{[4-(piperidin-1-yl)-2-[4-({[3-(trifluoromethyl)phenyl]methyl}carbamoyl)pyridin-2-yl]phenyl}carbamoyl}phenyl)formamido]ethoxy}ethoxy)ethoxy]propanoic acid] gave an IC50 of 10 to 31.6 µM. The “% remaining, SGF” value in series [2] is listed as greater than 80%. For the same compound, the “% remaining, SIF” value in series [3] was greater than 80%. In series [4], this compound yielded an AUC of less than 10 ng·h/mL and a Cmax of less than 10 ng/mL.

Turning to `CN(CCOCCOCCOCCC(=O)N1CCN(CCOCCO)CC1)C(=O)c1cccc(C(=O)Nc2ccc(N3CCCCC3)cc2-c2cc(C(=O)N[C@H]3CCCc4ccccc43)ccn2)c1` [Example 250, 1-N-(2-{2-[2-(3-{4-[2-(2-hydroxyethoxy)ethyl]piperazin-1-yl}-3-oxopropoxy)ethoxy]ethoxy}ethyl)-1-N-methyl-3-N-[4-(piperidin-1-yl)-2-(4-{[(1S)-1,2,3,4-tetrahydronaphthalen-1-yl]carbamoyl}pyridin-2-yl)phenyl]benzene-1,3-dicarboxamide], the concentration for half-maximal inhibition (IC50) in series [1] was 1 to 7.94 µM. The “% remaining, SGF” value in series [2] is listed as greater than 80%. Further, the “% remaining, SIF” value in series [3] is listed as greater than 80%. In series [4], this compound displayed an AUC of less than 10 ng·h/mL and a peak concentration (Cmax) of less than 10 ng/mL.

As to `COCCOCCOCCOCCOCCOCCOCCN(C)C(=O)[C@H]1CCCN(C(=O)c2cccc(C(=O)Nc3ccc(N4CCCCC4)cc3-c3cc(C(=O)N[C@H]4CCCc5ccccc54)ccn3)c2)C1` [Example 255, 2-(2-(3-((S)-3-(2,5,8,11,14,17,20-heptaoxadocosan-22-yl(methyl)carbamoyl)piperidine-1-carbonyl)benzamido)-5-(piperidin-1-yl)phenyl)-N—((S)-1,2,3,4-tetrahydronaphthalen-1-yl)isonicotinamide], the IC50 in series [1] was 1 to 7.94 µM. The “% remaining, SGF” value in series [2] is greater than 80%. In addition, in series [3], the “% remaining, SIF” value is on record as greater than 80%. In series [4], this compound returned an AUC of less than 10 ng·h/mL and a Cmax of less than 10 ng/mL.

The compound `COCCOCCOCCOCCOCCOCCOCCNC(=O)[C@H]1CCCN(C(=O)c2cccc(C(=O)Nc3ccc(N4CCCCC4)cc3-c3cc(C(=O)N[C@H]4CCCc5ccccc54)ccn3)c2)C1` [Example 256, 2-(2-(3-((S)-3-(2,5,8,11,14,17,20-heptaoxadocosan-22-ylcarbamoyl)piperidine-1-carbonyl)benzamido)-5-(piperidin-1-yl)phenyl)-N—((S)-1,2,3,4-tetrahydronaphthalen-1-yl)isonicotinamide] showed an IC50 in series [1] of 1 to 7.94 µM. The “% remaining, SGF” value in series [2] is listed as greater than 80%. For the same compound, the “% remaining, SIF” value in series [3] is recorded as greater than 80%. Also, in series [4], the AUC was less than 10 ng·h/mL and the Cmax is less than 10 ng/mL.

In series [1], `O=C(O)CCOCCOCCOCCOCCCc1cccc(C(=O)Nc2ccc(OC3CCC3)cc2-c2cc(C(=O)N[C@H]3CCCc4ccccc43)ccn2)c1` [Example 285, (S)-16-(3-((4-cyclobutoxy-2-(4-((1,2,3,4-tetrahydronaphthalen-1-yl)carbamoyl)pyridin-2-yl)phenyl)carbamoyl)phenyl)-4,7,10,13-tetraoxahexadecan-1-oic acid] gave an IC50 of less than 1 µM. Moreover, in series [2], the “% remaining, SGF” value is given as 60-80%. The “% remaining, SIF” value in series [3] is greater than 80%. In series [4], this compound came in with an AUC of less than 50 ng·h/mL and a Cmax of less than 30 ng/mL.

In the case of `COCCOCCOCCOCCOCCOCCOCCN(C)CCN(C)C(=O)c1cccc(C(=O)Nc2ccc(N3CCCCC3)cc2-c2cc(C(=O)N[C@H]3CCCc4ccccc43)ccn2)c1` [Example 333, (S)—N^1-Methyl-N^1-(23-methyl-2,5,8,11,14,17,20-heptaoxa-23-azapentacosan-25-yl)-N3-(4-(piperidin-1-yl)-2-(4-(1,2,3,4-tetrahydronaphthalen-1-ylcarbamoyl)pyridin-2-yl)phenyl)isophthalamide], the IC50 in series [1] is 1 to 7.94 µM. Further, the “% remaining, SGF” value in series [2] is recorded as greater than 80%. The “% remaining, SIF” value in series [3] is on record as greater than 80%. In series [4], this compound yielded an AUC of less than 50 ng·h/mL and a Cmax of less than 30 ng/mL.
